The results in this text go back to ChEMBL document CHEMBL1201862, “PubChem BioAssay data set” (2004).

SMILES strings stand for the structures.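 Briefly, cells in 96-well plates were exposed to five compound concentrations for 48 h, and endpoints were estimated by linear interpolation. GI50 is the concentration that inhibits growth by half.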 Calls of active or inactive are those of the source. No stated cut-off is given here; in the data, active = GI50 up to about 1.1 µM and inactive = higher.

Among the test systems are LOX IMVI; OVCAR-3; EKVX; SK-MEL-5; OVCAR-4; A549; NCI-H522; CCRF-CEM; SF-539; OVCAR-5; SF-268; CAKI-1; 786-0; SF-295; SNB-19; RPMI-8226; COLO 205.
Assay in all cases: NCI tumour cell line growth inhibition, 48 h

For the compound `CC(C)N(C(=O)C12C3C4C1C1C2C3C41C(=O)C(C)(C)C)C(C)C` (stereo not given), the GI50 is > 100 µM (inactive) in the experiment on LOX IMVI; > 100 µM (inactive) in the experiment with OVCAR-3; > 100 µM (inactive) in the experiment on EKVX; 38.8 µM (inactive) with SK-MEL-5; > 100 µM (inactive) in the experiment with OVCAR-4; > 100 µM (inactive) in the experiment on A549. Moreover, the GI50 is 14 µM (inactive) with NCI-H522; 16.1 µM (inactive) with CCRF-CEM; > 100 µM (inactive) in the experiment on SF-539; > 100 µM (inactive) with OVCAR-5; > 100 µM (inactive) with SF-268; > 100 µM (inactive) in the experiment on CAKI-1. For the same compound, the GI50 with 786-0 was > 100 µM (inactive); with SF-295, > 100 µM (inactive); in the experiment with SNB-19 it was > 100 µM (inactive); with RPMI-8226 it was 31.9 µM (inactive); with COLO 205, > 100 µM (inactive).

For `N#Cc1cccc2c1Nc1ccccc1S2`, the GI50 in the experiment on LOX IMVI, in the experiment on OVCAR-3, in the experiment on EKVX, in the experiment on SK-MEL-5, in the experiment with OVCAR-4 and in the experiment with A549 was > 100 µM (inactive) in each case. In addition, the GI50 in the experiment on NCI-H522 is > 100 µM (inactive); in the experiment on CCRF-CEM, > 100 µM (inactive); with SF-539, 46.7 µM (inactive); with OVCAR-5, > 100 µM (inactive); in the experiment on SF-268 it was 32.9 µM (inactive); with CAKI-1 it was > 100 µM (inactive). Moreover, the GI50 with 786-0 was 55.1 µM (inactive); with SF-295, 35.2 µM (inactive); in the experiment with SNB-19, 37.8 µM (inactive); with RPMI-8226, > 100 µM (inactive); with COLO 205, > 100 µM (inactive).

For the compound `Cc1ccccc1-n1c(CCl)nc2ccc(Br)cc2c1=O`, the GI50 with LOX IMVI was 0.0333 µM (active); with OVCAR-3, 14.2 µM (inactive); in the experiment on EKVX, 18.1 µM (inactive); in the experiment on SK-MEL-5 it was 8.17 µM (inactive); with OVCAR-4, 14.8 µM (inactive); with A549, 18.2 µM (inactive). In addition, the GI50 in the experiment on NCI-H522 is 2.28 µM (inactive); in the experiment with CCRF-CEM, 0.278 µM (active); in the experiment on SF-539, 7.16 µM (inactive); in the experiment on OVCAR-5 it was 24.4 µM (inactive); in the experiment on SF-268 it was 3.21 µM (inactive); with CAKI-1 it was 1.77 µM (inactive). Besides, the GI50 in the experiment on 786-0 was 8.17 µM (inactive); in the experiment on SF-295 it was 11 µM (inactive); with SNB-19 it was 26.7 µM (inactive); in the experiment with RPMI-8226 it was 8.36 µM (inactive); in the experiment on COLO 205, 13.4 µM (inactive).

For `N#Cc1nc(Nc2ccc([N+](=O)[O-])cc2)sc1N`, the GI50 in the experiment on LOX IMVI is 7.19 µM (inactive); with OVCAR-3 it was 16.9 µM (inactive); in the experiment with EKVX, 32.2 µM (inactive); in the experiment on SK-MEL-5, 3.79 µM (inactive); in the experiment with OVCAR-4 it was 33.8 µM (inactive); in the experiment with A549, 23.9 µM (inactive). The GI50 was 4.05 µM (inactive) with NCI-H522; 3.4 µM (inactive) with CCRF-CEM; 4.02 µM (inactive) with SF-539; 28.6 µM (inactive) in the experiment with OVCAR-5; 11.8 µM (inactive) with SF-268; 11.9 µM (inactive) in the experiment on CAKI-1. Besides, the GI50 is 21.2 µM (inactive) in the experiment on 786-0; 26.5 µM (inactive) with SF-295; 17.7 µM (inactive) in the experiment with SNB-19; 3.45 µM (inactive) with RPMI-8226; 14 µM (inactive) with COLO 205.

For the compound `C=C1C(=O)OC2C/C(C)=C/CC/C(C)=C/CCC3(COC(C)=O)OC3CC12` (stereo not given), the GI50 in the experiment on LOX IMVI is 9.46 µM (inactive); in the experiment with OVCAR-3 it was 6.19 µM (inactive); in the experiment with EKVX it was 19.6 µM (inactive); in the experiment with SK-MEL-5, 14.9 µM (inactive); with OVCAR-4 it was 26.7 µM (inactive); in the experiment with A549 it was 16.4 µM (inactive). In addition, the GI50 with NCI-H522 is 1.51 µM (inactive); in the experiment on CCRF-CEM it was 2.7 µM (inactive); in the experiment with SF-539 it was 2.85 µM (inactive); in the experiment on OVCAR-5 it was 16.5 µM (inactive); in the experiment on SF-268 it was 10 µM (inactive); with CAKI-1, 3.31 µM (inactive). Moreover, the GI50 is 5.65 µM (inactive) in the experiment with 786-0; 15.3 µM (inactive) with SF-295; 16.5 µM (inactive) in the experiment on SNB-19; 2.53 µM (inactive) in the experiment with RPMI-8226; 4.55 µM (inactive) in the experiment on COLO 205.
